Results from ChEMBL document CHEMBL5247626, “In vitro and in vivo biological evaluation of newly synthesized multi-target 20(R)-panaxadiol derivatives for treating Alzheimer's disease” (Eur J Med Chem, 2022).
Calls of active or inactive are those of the source. No cut-off for these calls is given here.

Legend:
PC-12 [1] = assay: Neuroprotective activity against rat PC12 cells assessed as reduction in amyloid beta (25 to 35)-induced cytotoxicity at 15 uM incubated for 4 hrs followed by amyloid beta (25 to 35) treatment for 24 hrs by MTT assay relative to control; format: functional; set-up: scale not given: the % may be the effect or the level left; settings: time 28 hrs
[2] = biological target: Amyloid-beta precursor protein (Homo sapiens) (UniProt P05067); assay: Disaggregation of amyloid beta (25 to 35) (unknown origin) self aggregation at 15 uM incubated for 24 hrs by transmission electron microscopy analysis
[3] = Permeability of the compound incubated for 4 hrs by PAMPA-BBB assay based HPLC analysis
Mus musculus [4] = assay: Antialzheimer activity against amyloid beta (25 to 35)-induced spatial memory deficit ICR mouse model assessed as increase in exploration time spent at 1.3 mg/kg,po observed at 16 to 20 days of administration by morris water maze test; format: functional, organism-based; settings: time 16-20 day
Mus musculus [5] = assay: Antialzheimer activity against amyloid beta (25 to 35)-induced spatial memory deficit ICR mouse model assessed as increase in distance travelled in target quadrant at 1.3 mg/kg,po observed at 16 to 20 days of administration by morris water maze test; format: functional, organism-based; settings: time 16-20 day
Mus musculus [6] = assay: Antialzheimer activity against amyloid beta (25 to 35)-induced cognitive deficit ICR mouse model assessed as increase in discrimination index at 1.3 mg/kg,po observed after 1 hr of administration by novel object recognition test; format: functional, organism-based
Mus musculus [7] = assay: Antialzheimer activity against amyloid beta (25 to 35)-induced cognitive deficit ICR mouse model assessed as increase in discrimination index at 1.3 mg/kg,po observed after 24 hrs of administration by novel object recognition test; format: functional, organism-based
Mus musculus [8] = assay: Antialzheimer activity against amyloid beta (25 to 35)-induced cognitive deficit ICR mouse model assessed as increase in preferential index at 1.3 mg/kg,po observed after 24 hrs of administration by novel object recognition test; format: functional, organism-based
PC-12 [9] = assay: Neuroprotective activity against amyloid beta (25 to 35)-induced rat PC12 cells assessed as decrease in total tau protein expression level at 15 uM preincubated for 30 mins followed by amyloid beta (25 to 35) addition and measured after 24 hrs by western blot assay; format: functional, cell-based; settings: time 24.5 hrs
PC-12 [10] = assay: Neuroprotective activity against amyloid beta (25 to 35)-induced rat PC12 cells assessed as decrease in tau hyperphosphorylation at Thr181 at 15 uM preincubated for 30 mins followed by amyloid beta (25 to 35) addition and measured after 24 hrs by western blot assay; format: functional, cell-based; settings: time 24.5 hrs
Mus musculus [11] = assay: Antialzheimer activity against amyloid beta (25 to 35)-induced cognitive deficit ICR mouse model assessed as effect on total number of arm enteries at 1.3 mg/kg,po observed after 11 days of administration by Y maze test; format: functional, organism-based; settings: time 11.0 day
Mus musculus [12] = assay: Antialzheimer activity against amyloid beta (25 to 35)-induced cognitive deficit ICR mouse model assessed as increase in preferential index at 1.3 mg/kg,po observed after 1 hr of administration by novel object recognition test; format: functional, organism-based
Mus musculus [13] = assay: Antialzheimer activity against amyloid beta (25 to 35)-induced cognitive deficit ICR mouse model assessed as attenuation of behavioral deficit at 1.3 mg/kg,po observed after 12 to 15 days of administration by Y maze test; format: functional, organism-based; settings: time 12-15 day

Sequence of Amyloid-beta precursor protein (Homo sapiens) (P05067 whole entry): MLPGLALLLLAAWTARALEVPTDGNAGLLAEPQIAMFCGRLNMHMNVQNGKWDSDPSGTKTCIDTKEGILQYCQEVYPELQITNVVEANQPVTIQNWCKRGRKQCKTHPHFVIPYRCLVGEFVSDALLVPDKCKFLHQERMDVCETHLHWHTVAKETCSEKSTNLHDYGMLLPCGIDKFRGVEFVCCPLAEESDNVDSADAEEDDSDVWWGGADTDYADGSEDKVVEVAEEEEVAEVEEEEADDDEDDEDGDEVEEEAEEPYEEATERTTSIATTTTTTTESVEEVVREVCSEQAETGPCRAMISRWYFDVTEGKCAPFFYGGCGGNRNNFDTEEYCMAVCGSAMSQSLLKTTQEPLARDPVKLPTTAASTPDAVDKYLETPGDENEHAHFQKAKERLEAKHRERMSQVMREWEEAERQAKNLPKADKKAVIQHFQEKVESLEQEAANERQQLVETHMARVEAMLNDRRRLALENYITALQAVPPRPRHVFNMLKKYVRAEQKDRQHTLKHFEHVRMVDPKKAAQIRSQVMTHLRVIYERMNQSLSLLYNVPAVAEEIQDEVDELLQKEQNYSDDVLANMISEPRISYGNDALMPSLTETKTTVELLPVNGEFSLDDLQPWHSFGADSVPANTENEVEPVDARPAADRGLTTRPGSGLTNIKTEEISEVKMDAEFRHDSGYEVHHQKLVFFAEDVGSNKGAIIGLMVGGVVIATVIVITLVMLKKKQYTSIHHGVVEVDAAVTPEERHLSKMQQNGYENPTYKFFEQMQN

Structure (SMILES) | Activity (PC-12 [1]) | other results
C=CCNC(=O)O[C@H]1CC[C@]2(C)[C@H]3C[C@@H](O)[C@@H]4[C@@H]([C@@]5(C)CCCC(C)(C)O5)CC[C@@]4(C)[C@]3(C)CC[C@H]2C1(C)C | 70.06% | –
CC1(C)CCC[C@](C)([C@H]2CC[C@]3(C)[C@@H]2[C@H](O)C[C@@H]2[C@@]4(C)CC[C@H](OC(=O)c5cn(-c6ccc(F)cc6)nn5)C(C)(C)[C@@H]4CC[C@]23C)O1 | 33.68% | –
CC1(C)CCC[C@](C)([C@H]2CC[C@]3(C)[C@@H]2[C@H](O)C[C@@H]2[C@@]4(C)CC[C@H](OC(=O)/C=C/c5ccco5)C(C)(C)[C@@H]4CC[C@]23C)O1 | 40.56% | –
CC1(C)CCC[C@](C)([C@H]2CC[C@]3(C)[C@@H]2[C@H](O)C[C@@H]2[C@@]4(C)CC[C@H](OC(=O)Nc5ccccc5)C(C)(C)[C@@H]4CC[C@]23C)O1 | 71.32% | –
CC1(C)CCC[C@](C)([C@H]2CC[C@]3(C)[C@@H]2[C@H](O)C[C@@H]2[C@@]4(C)CC[C@H](OC(=O)CN5CCOCC5)C(C)(C)[C@@H]4CC[C@]23C)O1.Cl | 23.96% | –
CC1(C)CCC[C@](C)([C@H]2CC[C@]3(C)[C@@H]2[C@H](O)C[C@@H]2[C@@]4(C)CC[C@H](OC(=O)c5cn(-c6ccc(Cl)cc6)nn5)C(C)(C)[C@@H]4CC[C@]23C)O1 | 36.15% | –
CC1(C)CCC[C@](C)([C@H]2CC[C@]3(C)[C@@H]2[C@H](O)C[C@@H]2[C@@]4(C)CC[C@H](OC(=O)Nc5ccc(F)cc5)C(C)(C)[C@@H]4CC[C@]23C)O1 | 67.4% | –
CCCNC(=O)O[C@H]1CC[C@]2(C)[C@H]3C[C@@H](O)[C@@H]4[C@@H]([C@@]5(C)CCCC(C)(C)O5)CC[C@@]4(C)[C@]3(C)CC[C@H]2C1(C)C | 65.9% | –
COc1cc(/C=C/C(=O)O[C@H]2CC[C@]3(C)[C@H]4C[C@@H](O)[C@@H]5[C@@H]([C@@]6(C)CCCC(C)(C)O6)CC[C@@]5(C)[C@]4(C)CC[C@H]3C2(C)C)ccc1O | 55.55% | –
COc1cc(/C=C/C(=O)CC(=O)/C=C/c2ccc(O)c(OC)c2)ccc1O | – | Activity [2]: Active
CC1(C)CCC[C@](C)([C@H]2CC[C@]3(C)[C@@H]2[C@H](O)C[C@@H]2[C@@]4(C)CC[C@H](OC(=O)Nc5ccc(Cl)cc5)C(C)(C)[C@@H]4CC[C@]23C)O1 | 64.16% | –
CC1(C)CCC[C@](C)([C@H]2CC[C@]3(C)[C@@H]2[C@H](O)C[C@@H]2[C@@]4(C)CC[C@H](OC(=O)/C=C/c5ccccc5)C(C)(C)[C@@H]4CC[C@]23C)O1 | 22.78% | –
COc1ccc(OP(=O)(Oc2ccc(OC)cc2)O[C@H]2CC[C@]3(C)[C@H]4C[C@@H](O)[C@@H]5[C@@H]([C@@]6(C)CCCC(C)(C)O6)CC[C@@]5(C)[C@]4(C)CC[C@H]3C2(C)C)cc1 | 57.15% | –
COC(=O)[C@@H](CC(C)C)NC(=O)CCC(=O)O[C@H]1CC[C@]2(C)[C@H]3C[C@@H](O)[C@@H]4[C@@H]([C@@]5(C)CCCC(C)(C)O5)CC[C@@]4(C)[C@]3(C)CC[C@H]2C1(C)C | 16.07% | –
COc1cc(/C=C/C(=O)O[C@H]2CC[C@]3(C)[C@H]4C[C@@H](O)[C@@H]5[C@@H]([C@@]6(C)CCCC(C)(C)O6)CC[C@@]5(C)[C@]4(C)CC[C@H]3C2(C)C)cc(OC)c1OC | 36.23% | –
CC1(C)CCC[C@](C)([C@H]2CC[C@]3(C)[C@@H]2[C@H](O)C[C@@H]2[C@@]4(C)CC[C@H](OC(=O)CN5CCCCC5)C(C)(C)[C@@H]4CC[C@]23C)O1.Cl | 12.66% | –
CC1(C)CCC[C@](C)([C@H]2CC[C@]3(C)[C@@H]2[C@H](O)C[C@@H]2[C@@]4(C)CC[C@H](OC(=O)CN5CCN(Cc6ccccc6)CC5)C(C)(C)[C@@H]4CC[C@]23C)O1.Cl | 37.37% | –
COC(=O)[C@H](NC(=O)CCC(=O)O[C@H]1CC[C@]2(C)[C@H]3C[C@@H](O)[C@@H]4[C@@H]([C@@]5(C)CCCC(C)(C)O5)CC[C@@]4(C)[C@]3(C)CC[C@H]2C1(C)C)c1ccccc1 | 22.85% | –

Structure (SMILES) | Activity (PC-12 [1]) | other results
CCCCCCNC(=O)O[C@H]1CC[C@]2(C)[C@H]3C[C@@H](O)[C@@H]4[C@@H]([C@@]5(C)CCCC(C)(C)O5)CC[C@@]4(C)[C@]3(C)CC[C@H]2C1(C)C | 50.09% | –
CC(C)NC(=O)O[C@H]1CC[C@]2(C)[C@H]3C[C@@H](O)[C@@H]4[C@@H]([C@@]5(C)CCCC(C)(C)O5)CC[C@@]4(C)[C@]3(C)CC[C@H]2C1(C)C | 69.45% | –
CC1(C)CCC[C@](C)([C@H]2CC[C@]3(C)[C@@H]2[C@H](O)C[C@@H]2[C@@]4(C)CC[C@H](OC(=O)/C=C/c5ccc(N6CCOCC6)cc5)C(C)(C)[C@@H]4CC[C@]23C)O1 | 32.75% | –
NC(=O)N1c2ccccc2C=Cc2ccccc21 [CARBAMAZEPINE] | – | Papp at 4 h [3]: 8.78 ×10⁻⁶ cm/s
COc1ccc(-n2cc(C(=O)O[C@H]3CC[C@]4(C)[C@H]5C[C@@H](O)[C@@H]6[C@@H]([C@@]7(C)CCCC(C)(C)O7)CC[C@@]6(C)[C@]5(C)CC[C@H]4C3(C)C)nn2)cc1 | 52.37% | –
CC1(C)CCC[C@](C)([C@H]2CC[C@]3(C)[C@@H]2[C@H](O)C[C@@H]2[C@@]4(C)CC[C@H](OC(=O)c5cn(-c6ccc([N+](=O)[O-])cc6)nn5)C(C)(C)[C@@H]4CC[C@]23C)O1 | 23.76% | –
CCNC(=O)O[C@H]1CC[C@]2(C)[C@H]3C[C@@H](O)[C@@H]4[C@@H]([C@@]5(C)CCCC(C)(C)O5)CC[C@@]4(C)[C@]3(C)CC[C@H]2C1(C)C | 65.69% | –
CCCCCCCNC(=O)O[C@H]1CC[C@]2(C)[C@H]3C[C@@H](O)[C@@H]4[C@@H]([C@@]5(C)CCCC(C)(C)O5)CC[C@@]4(C)[C@]3(C)CC[C@H]2C1(C)C | 59.9% | –
CC1(C)CCC[C@](C)([C@H]2CC[C@]3(C)[C@@H]2[C@H](O)C[C@@H]2[C@@]4(C)CC[C@H](OC(=O)NC5CCCCC5)C(C)(C)[C@@H]4CC[C@]23C)O1 | 66.39% | –
CC1(C)CCC[C@](C)([C@H]2CC[C@]3(C)[C@@H]2[C@H](O)C[C@@H]2[C@@]4(C)CC[C@H](OC(=O)c5cn(-c6ccccc6)nn5)C(C)(C)[C@@H]4CC[C@]23C)O1 | 25.49% | –
COC(=O)[C@@H](Cc1ccccc1)NC(=O)CCC(=O)O[C@H]1CC[C@]2(C)[C@H]3C[C@@H](O)[C@@H]4[C@@H]([C@@]5(C)CCCC(C)(C)O5)CC[C@@]4(C)[C@]3(C)CC[C@H]2C1(C)C | 33.77% | –
CC1(C)CCC[C@](C)([C@H]2CC[C@]3(C)[C@@H]2[C@H](O)C[C@@H]2[C@@]4(C)CC[C@H](OP(=O)(Oc5ccc(F)cc5)Oc5ccc(F)cc5)C(C)(C)[C@@H]4CC[C@]23C)O1 | 48.68% | –
CC1(C)CCC[C@](C)([C@H]2CC[C@]3(C)[C@@H]2[C@H](O)C[C@@H]2[C@@]4(C)CC[C@H](OC(=O)Nc5cccc(F)c5)C(C)(C)[C@@H]4CC[C@]23C)O1 | 65.25% | –
Cc1ccc(NC(=O)O[C@H]2CC[C@]3(C)[C@H]4C[C@@H](O)[C@@H]5[C@@H]([C@@]6(C)CCCC(C)(C)O6)CC[C@@]5(C)[C@]4(C)CC[C@H]3C2(C)C)cc1 | 64.13% | –
COc1cc2c(cc1OC)C(=O)C(CC1CCN(Cc3ccccc3)CC1)C2 (centres undefined) | – | Activity (Mus musculus [4]): Active; Activity (Mus musculus [5]): Active; Activity (Mus musculus [6]): inactive; Activity (Mus musculus [7]): Active; Activity (Mus musculus [8]): Active; Activity (PC-12 [9]): Active; Activity (PC-12 [10]): Active; Activity (Mus musculus [11]): inactive; Activity (Mus musculus [12]): inactive; Activity (Mus musculus [13]): Active
COC(=O)[C@H](NC(=O)CCC(=O)O[C@H]1CC[C@]2(C)[C@H]3C[C@@H](O)[C@@H]4[C@@H]([C@@]5(C)CCCC(C)(C)O5)CC[C@@]4(C)[C@]3(C)CC[C@H]2C1(C)C)C(C)C | 25.34% | –
COc1ccc(NC(=O)O[C@H]2CC[C@]3(C)[C@H]4C[C@@H](O)[C@@H]5[C@@H]([C@@]6(C)CCCC(C)(C)O6)CC[C@@]5(C)[C@]4(C)CC[C@H]3C2(C)C)cc1 | 65.27% | –
